{"source": "patent US20090209541A1", "about": "“APREPITANT COMPOSITIONS” (Dr. Reddy's Laboratories Ltd., priority 2006, published 2009)", "key": {"[1]": {"experiment": "Solubility of powder compositions of aprepitant at 25° C. in water (HPLC method)", "format": "physicochemical", "conditions": "thermodynamic from solid", "description": "Solubility of Powder Compositions of Aprepitant at 25° C. in Water\n• A. Aprepitant: Neat aprepitant was passed through a BSS # 80 mesh sieve, and its solubility in water was determined using a HPLC method. • B. Aprepitant: PVP K30 (1:1 w/w) solid dispersion: 2 g aprepitant and 2 g PVP K 30 were dissolved in a mixture of 200 ml dichloromethane and 20 ml methanol. This solution was dried in a rotary flash evaporator at 50° C. The dried solid dispersion was passed through a BSS # 80 mesh sieve. • C. Premix of A and B (1:6 w/w): Neat aprepitant and solid dispersion from B was mixed in the weight proportions of 1:6. This mixture was passed through a BSS # 80 mesh sieve. • D. Premix of A and B (1:2 w/w): Neat aprepitant and solid dispersion from B was mixed in the weight proportions of 1:2. This mixture was passed through a BSS # 80 mesh sieve. • E. Premix of A and B (3:2 w/w): Neat aprepitant and solid dispersion from B was mixed in the weight proportions of 3:2. This mixture was passed through a BSS # 80 mesh sieve. • F. Aprepitant: Polysorbate 80 (1:1 w/w): 1 g aprepitant and 1 g polysorbate 80 were mixed together by trituration. […]\nInjected blank once, standard solution, all sample preparations in different pH solutions each twice into the chromatographic system. Aprepitant solubility in mg/ml was calculated using following formula: […]"}, "[2]": {"conditions": "cited from earlier work"}, "[3]": {"conditions": "cited from earlier work", "remark": "listed apart in the source"}, "[4]": {"conditions": "U.S. Pat. Nos. 6,096,742 and 6,583,142; cited from earlier work"}}}
{"smiles": "C[C@@H](O[C@H]1OCCN(Cc2n[nH]c(=O)[nH]2)[C@H]1c1ccc(F)cc1)c1cc(C(F)(F)F)cc(C(F)(F)F)c1", "note": "[A, Aprepitant]", "values": [{"measurement": "solubility", "setting": "[1]", "value": 0.5, "unit": "µg/mL"}]}
{"smiles": "C[C@@H](O[C@H]1OCCN(Cc2n[nH]c(=O)[nH]2)[C@H]1c1ccc(F)cc1)c1cc(C(F)(F)F)cc(C(F)(F)F)c1", "note": "[Aprepitant, 5-[[(2R,3S)-2-[(1R)-1-[3,5-bis(trifluoromethyl)phenyl]ethoxy]-3-(4-fluorophenyl)-4-morpholinyl]methyl]-1,2-dihydro-3H-1,2,4-triazol-3-one]", "values": [{"measurement": "solubility in acetonitrile (descriptive)", "setting": "[2]; acetonitrile", "value": "slightly soluble"}, {"measurement": "solubility in ethanol (descriptive)", "setting": "[2]; ethanol", "value": "sparingly soluble"}, {"measurement": "solubility in isopropyl acetate (descriptive)", "setting": "[2]; isopropyl acetate", "value": "sparingly soluble"}, {"measurement": "solubility in water (descriptive)", "setting": "[2]; water", "value": "practically insoluble"}, {"measurement": "permeability characteristics", "setting": "[3]", "value": "poor permeability"}]}
{"smiles": "C[C@@H](O[C@H]1OCCN(Cc2n[nH]c(=O)[nH]2)[C@H]1c1ccc(F)cc1)c1cc(C(F)(F)F)cc(C(F)(F)F)c1", "note": "[Form I, aprepitant]", "values": [{"measurement": "solubility relative to Form II", "setting": "[4]", "value": "lower solubility as compared to Form II"}, {"measurement": "thermodynamic stability relative to Form II", "setting": "[4]", "value": "thermodynamically more stable than Form II"}]}
